Results published in US6486196B2, “Anticancer compounds: process for their preparation and pharmaceutical compositions containing them” (Dr. Reddy's Research Foundation, priority 2000, dated 2002).

Columns and labels:
HT29 = experiment: Sulforhodamine B growth inhibition, colon HT29; type: cell-based, human; conditions: 48 h, SRB, read-out: GROWTH INHIBITION (GI 50)
Protocol: (§1) Each test compound was screened against a battery of cell lines representing eight different types of cancers. In a typical procedure, 1×10^4 cells were seeded into each well of 96 well plate in 100 μL volume of RPMI 1640 medium containing antibiotics and 10% FCS.
(§2) The plates were incubated at 37° C. in presence of CO2. After 24 h, test compounds were evaluated at five 10 fold dilutions ranging from 100 to 0.01 μM. To each test well 100 μL of test compound solution was added and medium with vehicle was added to control wells and the plates were further incubated. After 48 h of incubation, plates were terminated by Sulforhodamine B method.
(§3) The optical density which is proportional to protein mass, is then read by automated spectrophotometric plate reader at a wavelength of 515 nm.

SW-620 = experiment: Sulforhodamine B growth inhibition, colon SW-620; type: cell-based, human; conditions: 48 h, SRB, read-out: GROWTH INHIBITION (GI 50)
Protocol: as §1, §2, §3

HIV-1/MN = experiment: Anti HIV activity in PM-1 cells (P24 ELISA, MTT corrected); type: cell-based; conditions: 1 μM; PM-1 cells infected with HIV-1/MN, 96 h, P24 antigen corrected by MTT
Protocol: Human CD^4+ T cell line PM-1 used in the assay was cultured in RPMI-1640 medium containing 10% Fetal bovine serum, 2 g/L sodium bicarbonate, 100,000 units/L Pencillin-G and 100 mg/L streptomycin. Healthy PM-1 cells were plated on the first day in a 96 well plate at 2×10^6 cells per well. After 24 h HIV-1/MN was added to the culture and incubated for 2 h for infection. Cells were washed twice with PBS to remove the virus in the culture. Different concentrations of DRF compounds ranging from 10−^4 to 10^−8 M were added to the culture and incubated for 96 h. The viability of cells was then assessed by standard MTT assay and the viral antigen P24 levels were estimated by ELISA method. Based on the MTT assay values the P 24 antigen values were corrected.
All the samples were tested in triplicates and the average was used for calculations. AZT was used as standard compound for comparision.

Swiss albino mice = experiment: Plasma triglyceride and body weight reduction in Swiss albino mice; type: in vivo
Protocol: Male Swiss albino mice (SAM) were obtained from NIN and housed in DRF animal house. All these animals were maintained under 12 hour light and dark cycle at 25±1° C. Animals were given standard laboratory chow (NIN, Hyderabad, India) and water, ad libitum. SAM of 20-25 g body weight range (Oliver, P., Plancke, M. O., Marzin, D., Clavey, V., Sauzieres, J and Fruchart, J. C. Effects of fenofibrate, gemfibrozil and nicotinic acid on plasma lipoprotein levels in normal and hyperlipidemic mice. Atherosclerosis. 1988. 70: 107-114)
The test compounds were administered orally to Swiss albino mice at 30 to 500 mg/kg/day dose for 6 days. Control mice were treated with vehicle (Chremophore/DMSO/H2O; dose 10 ml/kg).
The blood samples were collected in fed state 1 hour after drug administration on 0 and 6 day of treatment. The blood was collected from the retro-orbital sinus through heparinised capillary in EDTA containing tubes. After centrifugation, plasma sample was separated for triglyceride (Wieland, 0. Methods of Enzymatic analysis, Bergerneyer, H. O., Ed., 1963. 211-214; Trinder, P. Ann. Clin. Biochem. 1969. 6: 24-27). Measurement of plasma triglycerides was done using commercial kits (Dr. Reddy's Diagnostic Division, Hyderabad, India).
The formula used to measure percent reduction in blood sugar/triglycerides is given above.

H522 = experiment: Sulforhodamine B growth inhibition, lung H522; type: cell-based, human; conditions: 48 h, SRB, read-out: GROWTH INHIBITION (GI 50)
Protocol: as §1, §2, §3

PA1 = experiment: Sulforhodamine B growth inhibition, ovarian PA1; type: cell-based, human; conditions: 48 h, SRB, read-out: GROWTH INHIBITION (GI 50)
Protocol: as §1, §2, §3

PC-3 = experiment: Sulforhodamine B growth inhibition, prostate PC-3; type: cell-based, human; conditions: 48 h, SRB, read-out: GROWTH INHIBITION (GI 50)
Protocol: as §1, §2, §3

UACC62 = experiment: Sulforhodamine B growth inhibition, melanoma UACC62; type: cell-based, human; conditions: 48 h, SRB, read-out: GROWTH INHIBITION (GI 50)
Protocol: as §1, §2, §3

C57BL/KsJ-db/db mice = experiment: Blood sugar and triglycerides lowering in db/db mice; type: in vivo; conditions: 100 mg/kg oral gavage daily for 6 days, plasma
Description: Mutution in colonies of laboratory animals and different sensitivities to dietary regimens have made the development of animal models with non-insulin dependent diabetes and hyperlipidemia associated with obesity and insulin resistance possible. Genetic models such as db/db mice have been developed by the various laboratories for understanding the pathophysiology of disease and testing the efficacy of new antidiabetic compounds (Diabetes, (1983) 32: 830-838; Annu. Rep. Sankyo Res. Lab. (1994) 46:1-57). The homozygous animals, C57 BL/KsJ-db/db mice developed by Jackson Laboratory, US, are obese, hyperglycemic, hyperinsulinemic and insulin resistant (J. Clin, Invest., (1990) 85: 962-967), whereas heterozygous are lean and normoglycemic. […]
The random blood sugar and triglyceride levels were measured by collecting blood (100 μl) through orbital sinus, using heparinised capillary in tubes containing EDTA which was centrifuged to obtain plasma. The plasma glucose and triglyceride levels were measured spectrometrically, by glucose oxidase and glycerol-3-PO4 oxidase/peroxidase enzyme (Dr. Reddy's Lab. Diagnostic Division Kits, Hyderabad, India) methods respectively.
The blood sugar and triglycerides lowering activities of the test compound was calculated according to the formula: [formula]
Body weight of the animals were measured at the beginning and at the end of the study period.

U251 = experiment: Sulforhodamine B growth inhibition, CNS U251; type: cell-based, human; conditions: 48 h, SRB, read-out: GROWTH INHIBITION (GI 50)
Protocol: as §1, §2, §3

MCF7 = experiment: Sulforhodamine B growth inhibition, breast MCF7; type: cell-based, human; conditions: 48 h, SRB, read-out: GROWTH INHIBITION (GI 50)
Protocol: as §1, §2, §3

MCF-7/ADR = experiment: Sulforhodamine B growth inhibition, breast MCF-7/ADR; type: cell-based, human; conditions: 48 h, SRB, read-out: GROWTH INHIBITION (GI 50)
Protocol: as §1, §2, §3

Human lymphocytes = experiment: Lymphocyte proliferation (tritiated thymidine incorporation); type: cell-based; conditions: 1 μM; human lymphocytes with Phytohemagglutitin A
Protocol: Human lymphocytes were isolated from whole blood by using Ficoll Hypaque Plus (Amersham). On day one, 1 million lymphocytes were seeded into each well of 96 well plate in 100 μL volume of RPMI 1640 medium containing 10% FCS and Phytohemagglutitin A at 1 μg/well concentration. Plates were incubated at 37° C. in CO2 incubator for 24 h. Test compounds at various concentrations were added to test wells and only medium with vehicle was added to control wells. After 48 h of incubation […] of tritiated thymidine was added to each well. After 24 h of thymidine addition the cells were harvested and the incorporated radioactivity was determined.
Stimulation Index (SI) was calculated using the formula, […]

DU145 = experiment: Sulforhodamine B growth inhibition, prostate DU145; type: cell-based, human; conditions: 48 h, SRB, read-out: GROWTH INHIBITION (GI 50)
Protocol: as §1, §2, §3

A498 = experiment: Sulforhodamine B growth inhibition, renal A498; type: cell-based, human; conditions: 48 h, SRB, read-out: GROWTH INHIBITION (GI 50)
Protocol: as §1, §2, §3

SKOV-3 = experiment: Sulforhodamine B growth inhibition, ovarian SKOV-3; type: cell-based, human; conditions: 48 h, SRB, read-out: GROWTH INHIBITION (GI 50)
Protocol: as §1, §2, §3

With `C=C1CC[C@@H]2[C@](C)(COC(C)=O)[C@H](OC(C)=O)CC[C@@]2(C)[C@@H]1C/C=C1/C(=O)OC[C@H]1OC(=O)C(OC(C)=O)C(NC(C)=O)c1ccccc1` (stereo partly drawn) [Example 16, 3,19-Diacetyl-14-(2′-acetyl 3′-acetamido 3′-phenyl)propionyl andrographolide] the GI50 (HT29) was 6.5 µM, the GI50 (SW-620) was 6 µM and the “Percentage Inhibition” value (HIV-1/MN) was 61.06%. The “Percentage reduction Body weight” value (Swiss albino mice; 100 mg/kg orally for 6 days) was 9%, the “Percentage reduction TG” value (Swiss albino mice; 100 mg/kg orally for 6 days) was 42% and the “Percentage reduction Body weight” value (Swiss albino mice; 250 mg/kg orally for 6 days) was 15%. For the same compound, the “Percentage reduction Body weight” value (Swiss albino mice; 500 mg/kg orally for 6 days) was 23%, the “Percentage reduction TG” value (Swiss albino mice; 500 mg/kg orally for 6 days) was 62% and the GI50 (H522) was 6 µM. The GI50 (PA1) was 2 µM, the GI50 (PC-3) was 6.5 µM and the GI50 (UACC62) was 3 µM. The “Percentage reduction Glucose” value (C57BL/KsJ-db/db mice) was 64%, the “Percentage reduction TG” value (C57BL/KsJ-db/db mice) was 54% and the GI50 (U251) was 4 µM. The GI50 (MCF7) was 5 µM, the GI50 (MCF-7/ADR) was 5.5 µM and the “Stimulation Index (SI)” value (Human lymphocytes) was 90. For the same compound, the GI50 (DU145) was 6.5 µM, the GI50 (A498) was 9 µM and the GI50 (SKOV-3) was 4 µM.
